# Experimental data: PubChem BioAssay (NCI)
#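 These data come from cells grown in 96-well plates and exposed to compound for 48 hours at five concentrations. The concentration for 50% growth inhibition is given as GI50. Definition used: TGI = concentration required for complete inhibition of growth.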
# Columns and labels:
# Assay in all cases: growth of human tumour cells (NCI), 48 h
# SR leukemia = tested on: SR leukemia
# K-562 leukemia = tested on: K-562 leukemia
# SK-OV-3 ovarian = tested on: SK-OV-3 ovarian
# OVCAR-4 ovarian = tested on: OVCAR-4 ovarian
# KM12 colon = tested on: KM12 colon
# HL-60(TB) leukemia = tested on: HL-60(TB) leukemia
# MDA-MB-435 = tested on: MDA-MB-435
# UACC-257 melanoma = tested on: UACC-257 melanoma
# UO-31 renal = tested on: UO-31 renal
# M14 melanoma = tested on: M14 melanoma
# OVCAR-3 ovarian = tested on: OVCAR-3 ovarian
# BT-549 breast = tested on: BT-549 breast
# 786-0 renal = tested on: 786-0 renal
# A549 NSCLC = tested on: A549 NSCLC
# HCT-116 colon = tested on: HCT-116 colon
# MDA-MB-231 breast = tested on: MDA-MB-231 breast
# OVCAR-8 ovarian = tested on: OVCAR-8 ovarian
# LOX IMVI melanoma = tested on: LOX IMVI melanoma
# NCI-H23 lung = tested on: NCI-H23 lung
# MOLT-4 leukemia = tested on: MOLT-4 leukemia
# NCI-H226 lung = tested on: NCI-H226 lung
# HT29 colon = tested on: HT29 colon
# U251 CNS = tested on: U251 CNS
# MCF7 breast = tested on: MCF7 breast
# RXF 393 renal = tested on: RXF 393 renal
# NCI/ADR-RES ovarian = tested on: NCI/ADR-RES ovarian
# COLO 205 colon = tested on: COLO 205 colon
# UACC-62 melanoma = tested on: UACC-62 melanoma
# HOP-62 NSCLC = tested on: HOP-62 NSCLC
# NCI-H460 lung = tested on: NCI-H460 lung
# HCC-2998 colon = tested on: HCC-2998 colon
# SK-MEL-5 melanoma = tested on: SK-MEL-5 melanoma
# ACHN renal = tested on: ACHN renal
# A498 renal = tested on: A498 renal
# DU-145 prostate = tested on: DU-145 prostate
# NCI-H522 lung = tested on: NCI-H522 lung
# CAKI-1 renal = tested on: CAKI-1 renal
# SF-539 CNS = tested on: SF-539 CNS
# MALME-3M melanoma = tested on: MALME-3M melanoma
# EKVX NSCLC = tested on: EKVX NSCLC
# HCT-15 colon = tested on: HCT-15 colon
# SF-268 CNS = tested on: SF-268 CNS
# SK-MEL-2 melanoma = tested on: SK-MEL-2 melanoma
# SN12C renal = tested on: SN12C renal
# TK-10 renal = tested on: TK-10 renal
# SNB-75 CNS = tested on: SNB-75 CNS
# SF-295 CNS = tested on: SF-295 CNS
# SNB-19 CNS = tested on: SNB-19 CNS
# HOP-92 NSCLC = tested on: HOP-92 NSCLC
# CCRF-CEM leukemia = tested on: CCRF-CEM leukemia
# SK-MEL-28 melanoma = tested on: SK-MEL-28 melanoma
smiles,measurement,setting,value
CC1(C)C(=O)/C(=C\c2ccccn2)C[C@]2(C)[C@H]3CC[C@@H]4[C@@H](C(=O)/C=C/c5ccccn5)CC[C@@]4(C)[C@]3(C)CC[C@@H]12,GI50,SR leukemia,342 nM
same,TGI,SR leukemia,2110 nM
same,GI50,K-562 leukemia,347 nM
same,TGI,K-562 leukemia,> 100000 nM
same,GI50,SK-OV-3 ovarian,3890 nM
same,TGI,SK-OV-3 ovarian,> 100000 nM
same,GI50,OVCAR-4 ovarian,2410 nM
same,TGI,OVCAR-4 ovarian,> 100000 nM
same,GI50,KM12 colon,1670 nM
same,TGI,KM12 colon,3210 nM
same,GI50,HL-60(TB) leukemia,486 nM
same,TGI,HL-60(TB) leukemia,3950 nM
same,GI50,MDA-MB-435,296 nM
same,TGI,MDA-MB-435,885 nM
same,GI50,UACC-257 melanoma,1640 nM
same,TGI,UACC-257 melanoma,5470 nM
same,GI50,UO-31 renal,787 nM
same,TGI,UO-31 renal,2100 nM
same,GI50,M14 melanoma,907 nM
same,TGI,M14 melanoma,3140 nM
same,GI50,OVCAR-3 ovarian,538 nM
same,TGI,OVCAR-3 ovarian,1850 nM
same,GI50,BT-549 breast,1380 nM
same,TGI,BT-549 breast,4260 nM
same,GI50,786-0 renal,1200 nM
same,TGI,786-0 renal,2770 nM
same,GI50,A549 NSCLC,2020 nM
same,TGI,A549 NSCLC,> 28200 nM
same,GI50,HCT-116 colon,263 nM
same,TGI,HCT-116 colon,795 nM
same,GI50,MDA-MB-231 breast,532 nM
same,TGI,MDA-MB-231 breast,2530 nM
same,GI50,OVCAR-8 ovarian,493 nM
same,TGI,OVCAR-8 ovarian,> 100000 nM
same,GI50,LOX IMVI melanoma,232 nM
same,TGI,LOX IMVI melanoma,565 nM
same,GI50,NCI-H23 lung,2000 nM
same,TGI,NCI-H23 lung,4630 nM
same,GI50,MOLT-4 leukemia,537 nM
same,TGI,MOLT-4 leukemia,> 100000 nM
same,GI50,NCI-H226 lung,1800 nM
same,TGI,NCI-H226 lung,4850 nM
same,GI50,HT29 colon,1050 nM
same,TGI,HT29 colon,3460 nM
same,GI50,U251 CNS,749 nM
same,TGI,U251 CNS,2080 nM
same,GI50,MCF7 breast,405 nM
same,TGI,MCF7 breast,3890 nM
same,GI50,RXF 393 renal,859 nM
same,TGI,RXF 393 renal,2260 nM
same,GI50,NCI/ADR-RES ovarian,1470 nM
same,TGI,NCI/ADR-RES ovarian,5930 nM
same,GI50,COLO 205 colon,1760 nM
same,TGI,COLO 205 colon,4380 nM
same,GI50,UACC-62 melanoma,1190 nM
same,TGI,UACC-62 melanoma,2580 nM
same,GI50,HOP-62 NSCLC,2140 nM
same,TGI,HOP-62 NSCLC,5820 nM
same,GI50,NCI-H460 lung,1970 nM
same,TGI,NCI-H460 lung,4200 nM
same,GI50,HCC-2998 colon,1800 nM
same,TGI,HCC-2998 colon,3490 nM
same,GI50,SK-MEL-5 melanoma,1510 nM
same,TGI,SK-MEL-5 melanoma,2890 nM
same,GI50,ACHN renal,479 nM
same,TGI,ACHN renal,1690 nM
same,GI50,A498 renal,1670 nM
same,TGI,A498 renal,3110 nM
same,GI50,DU-145 prostate,1760 nM
same,TGI,DU-145 prostate,3230 nM
same,GI50,NCI-H522 lung,2010 nM
same,TGI,NCI-H522 lung,4520 nM
CCCCCCNC(=O)Nc1ccc2cc3ccc(NC(=O)NCCCCCC)cc3nc2c1,GI50,SR leukemia,284 nM
same,TGI,SR leukemia,1270 nM
same,GI50,CAKI-1 renal,> 26500 nM
same,TGI,CAKI-1 renal,> 100000 nM
same,GI50,SF-539 CNS,1580 nM
same,TGI,SF-539 CNS,3000 nM
same,GI50,MALME-3M melanoma,1630 nM
same,TGI,MALME-3M melanoma,3120 nM
same,GI50,EKVX NSCLC,5790 nM
same,TGI,EKVX NSCLC,> 100000 nM
same,GI50,MDA-MB-435,406 nM
same,TGI,MDA-MB-435,1510 nM
same,GI50,UO-31 renal,> 100000 nM
same,TGI,UO-31 renal,> 100000 nM
same,GI50,HCT-15 colon,> 100000 nM
same,TGI,HCT-15 colon,> 100000 nM
same,GI50,BT-549 breast,4090 nM
same,TGI,BT-549 breast,> 100000 nM
same,GI50,786-0 renal,2520 nM
same,TGI,786-0 renal,> 26600 nM
same,GI50,SF-268 CNS,1200 nM
same,TGI,SF-268 CNS,2960 nM
same,GI50,SK-MEL-2 melanoma,1900 nM
same,TGI,SK-MEL-2 melanoma,4010 nM
same,GI50,HCT-116 colon,358 nM
same,TGI,HCT-116 colon,1250 nM
same,GI50,MDA-MB-231 breast,1540 nM
same,TGI,MDA-MB-231 breast,3110 nM
same,GI50,OVCAR-8 ovarian,614 nM
same,TGI,OVCAR-8 ovarian,2880 nM
same,GI50,LOX IMVI melanoma,268 nM
same,TGI,LOX IMVI melanoma,737 nM
same,GI50,SN12C renal,1080 nM
same,TGI,SN12C renal,2510 nM
same,GI50,NCI-H226 lung,4950 nM
same,TGI,NCI-H226 lung,> 100000 nM
same,GI50,HT29 colon,2240 nM
same,TGI,HT29 colon,> 100000 nM
same,GI50,TK-10 renal,23500 nM
same,TGI,TK-10 renal,> 100000 nM
same,GI50,SNB-75 CNS,1450 nM
same,TGI,SNB-75 CNS,3160 nM
same,GI50,U251 CNS,336 nM
same,TGI,U251 CNS,1290 nM
same,GI50,SF-295 CNS,2320 nM
same,TGI,SF-295 CNS,6040 nM
same,GI50,MCF7 breast,396 nM
same,TGI,MCF7 breast,1570 nM
same,GI50,SNB-19 CNS,1730 nM
same,TGI,SNB-19 CNS,3360 nM
same,GI50,HOP-92 NSCLC,1670 nM
same,TGI,HOP-92 NSCLC,4070 nM
same,GI50,RXF 393 renal,1400 nM
same,TGI,RXF 393 renal,5510 nM
same,GI50,NCI/ADR-RES ovarian,83700 nM
same,TGI,NCI/ADR-RES ovarian,> 100000 nM
same,GI50,UACC-62 melanoma,1210 nM
same,TGI,UACC-62 melanoma,2530 nM
same,GI50,HOP-62 NSCLC,1810 nM
same,TGI,HOP-62 NSCLC,4880 nM
same,GI50,CCRF-CEM leukemia,258 nM
same,TGI,CCRF-CEM leukemia,714 nM
same,GI50,SK-MEL-28 melanoma,1720 nM
same,TGI,SK-MEL-28 melanoma,3140 nM
same,GI50,ACHN renal,43500 nM
same,TGI,ACHN renal,> 100000 nM
same,GI50,A498 renal,1880 nM
same,TGI,A498 renal,> 28700 nM
same,GI50,DU-145 prostate,2000 nM
same,TGI,DU-145 prostate,> 100000 nM
